For series [1], the target named is T1, Golgi mannosidase II in MDAY-D2 tumor cells (Mus musculus, UniProt P27046).
T1 construct: endogenous in cells; host or cells: MDAY-D2 tumor cells
T1 sequence (P27046 1-1150): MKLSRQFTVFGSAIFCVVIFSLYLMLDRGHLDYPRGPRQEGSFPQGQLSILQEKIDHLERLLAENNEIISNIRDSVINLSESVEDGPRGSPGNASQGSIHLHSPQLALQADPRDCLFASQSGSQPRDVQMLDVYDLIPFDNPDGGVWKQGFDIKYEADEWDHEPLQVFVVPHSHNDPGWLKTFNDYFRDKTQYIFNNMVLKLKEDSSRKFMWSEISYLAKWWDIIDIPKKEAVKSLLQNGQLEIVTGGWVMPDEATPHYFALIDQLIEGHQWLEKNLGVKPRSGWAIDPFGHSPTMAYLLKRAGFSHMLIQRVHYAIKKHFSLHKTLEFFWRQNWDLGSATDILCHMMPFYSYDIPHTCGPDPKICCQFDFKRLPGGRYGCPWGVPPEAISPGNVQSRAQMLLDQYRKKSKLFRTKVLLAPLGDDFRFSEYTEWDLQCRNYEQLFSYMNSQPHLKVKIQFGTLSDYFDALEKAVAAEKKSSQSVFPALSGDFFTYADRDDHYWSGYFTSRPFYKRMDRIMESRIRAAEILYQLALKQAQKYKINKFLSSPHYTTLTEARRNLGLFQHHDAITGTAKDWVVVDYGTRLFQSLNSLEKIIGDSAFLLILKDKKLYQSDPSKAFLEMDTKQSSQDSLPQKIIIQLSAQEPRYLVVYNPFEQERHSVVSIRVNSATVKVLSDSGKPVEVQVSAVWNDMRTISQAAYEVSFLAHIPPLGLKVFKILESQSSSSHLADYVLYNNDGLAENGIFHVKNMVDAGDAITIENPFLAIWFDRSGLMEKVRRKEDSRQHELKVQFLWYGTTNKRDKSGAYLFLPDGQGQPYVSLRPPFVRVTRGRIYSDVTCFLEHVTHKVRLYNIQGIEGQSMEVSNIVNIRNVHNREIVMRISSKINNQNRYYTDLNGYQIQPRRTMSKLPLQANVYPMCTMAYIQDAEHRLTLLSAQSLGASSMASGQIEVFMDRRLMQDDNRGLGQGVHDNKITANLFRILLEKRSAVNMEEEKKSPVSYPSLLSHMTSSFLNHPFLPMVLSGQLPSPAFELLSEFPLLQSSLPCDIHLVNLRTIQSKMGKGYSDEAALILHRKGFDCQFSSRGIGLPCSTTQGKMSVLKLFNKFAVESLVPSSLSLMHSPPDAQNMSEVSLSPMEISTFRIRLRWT
As to the kind of experiment: L-PHA cell assay for inhibition of mannosidase II in cells (alkaline phosphatase readout). Format: cell-based, murine. The method, then: The test compound swainsonine hydrochloride is prepared by 0.5 serial dilution of a 40 μM stock in 50 μl of 5% fetal bovine serum (FBS) in minimum essential medium (MEM). To 50 μl of diluted test samples in 96 well plates, 10,000 MDAY-D2 tumor cells in 50 μl of 5% FBS in MEM is added to each well. The samples are incubated at 37° C. overnight in a 5% CO2 incubator. Test wells are prepared in duplicate for the addition of 25 μl/well of either 5% FBS in MEM or 5% FBS in MEM containing 100 μg/ml of L-PHA. Samples are again incubated at 37° C. overnight in a 5% CO2 incubator. The viability and/or proliferation of the cells in each well is measured using phenazine methylsulfate (PMS) and (3(4,5-dimethylthiazol-2-yl-5-(3-carboxymethoxyphenyl)-2,4,sulfophenyl)-2H tetrazolium salt (“MTS”) as described in the instructions of the Promega CellTiter 96 AQ kit. The absorption is read at 490 nm. The loss of L-PHA toxicity is directly related to entry of the drug into the cells and to inhibition of Golgi mannosidase II, and loss of L-PHA binding carbohydrate structures on the cells surface.
Cells. […]
Alkaline Phosphatase Assay. […] After 15-30 min of colour development, absorbance of the chromogenic product para-nitrophenol was measured at […] using a multiwell scanning photometer (Thermomax Multiplate Reader, Molecular Devices). […]

A short description of series [2]: Preformulation hygroscopicity study of bulk drug (water uptake, Karl Fischer). The settings on record: for water absorbed by Karl Fischer: after 48 hours of storage; for water absorbed: 75% RH. In kind it is physicochemical. The protocol: Preformulation studies of swainsonine hydrochloride, bulk drug substance, and in combination with powder and semisolid fill gelatin capsules were conducted with respect to the following: hygroscopicity, pH, stability, and solubility. […] At 20% and 50% RH it absorbed 1.9% and 2.1% of water by Karl Fischer after 48 hours of storage. The moisture uptake diminishes when anhydrous powder excipients (e.g. lactose anhydrous and mannitol powder) are used to formulate the pharmaceutical active into a hard capsule.

In general, IC50 refers to the concentration needed to halve the response being measured. A lower IC50 goes with inhibition by little substance. In the case of `Cl.O[C@H]1[C@H]2[C@H](O)CCCN2C[C@@H]1O` [swainsonine hydrochloride, (−)-(1S,2S,8R,8aR)-1,2,8-trihydroxyoctahydro-indolizidine hydrochloride salt], in series [1], the IC50 was found to be 57 ± 10 nM. Besides, the figures for the “water absorbed by Karl Fischer” value in series [2] (20% RH) and in series [2] (50% RH) were 1.9% and 2.1%, respectively. The water absorbed entry is “approximately 8 % (w/w)” in series [2] (first 2 hours) and ~24 % (w/w) in series [2] (first 8 hours). For the same compound, the hygroscopicity entry in series [2] (bulk drug) is recorded as “highly hygroscopic”.

The values above are taken from patent US6395745B1, “Alkaloid halide salts of swainsonine and methods of use” (priority 1997, dated 2002).
